This note sets out measurements from ChEMBL document CHEMBL1131710, “N-substituted-3-arylpyrrolidines: potent and selective ligands at serotonin 1A receptor” (Bioorg Med Chem Lett, 1999).

Format in all cases: tissue-based
For one assay, the target named is D(2) dopamine receptor (Rattus norvegicus, UniProt P61169). The assay is described as follows: In vitro binding affinity against Dopamine receptor D2 of rat striatum using [3H]raclopride.
Assay [1] concerns the target T1, 5-hydroxytryptamine receptor 1A (Rattus norvegicus, UniProt P19327).
T1 sequence (P19327 whole entry): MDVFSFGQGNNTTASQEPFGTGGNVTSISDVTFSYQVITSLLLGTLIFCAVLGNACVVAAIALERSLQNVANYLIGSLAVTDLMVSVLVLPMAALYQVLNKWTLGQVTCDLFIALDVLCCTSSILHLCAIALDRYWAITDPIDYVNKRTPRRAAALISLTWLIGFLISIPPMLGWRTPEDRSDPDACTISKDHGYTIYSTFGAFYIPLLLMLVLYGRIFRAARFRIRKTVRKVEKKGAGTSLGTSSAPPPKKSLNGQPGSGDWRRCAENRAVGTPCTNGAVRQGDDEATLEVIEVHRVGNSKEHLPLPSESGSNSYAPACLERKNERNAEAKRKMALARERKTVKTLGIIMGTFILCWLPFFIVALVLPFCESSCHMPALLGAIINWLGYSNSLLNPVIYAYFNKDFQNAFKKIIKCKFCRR
As to the kind of experiment: In vitro binding affinity against 5-HT1A receptor of rat hippocampus using [3H]8-OH-DPAT.

For assay [2], the target named is T2, Adrenergic receptor alpha-2 (Rattus norvegicus, UniProt P22086+P19328+P22909).
T2 sequence (P22086 whole entry): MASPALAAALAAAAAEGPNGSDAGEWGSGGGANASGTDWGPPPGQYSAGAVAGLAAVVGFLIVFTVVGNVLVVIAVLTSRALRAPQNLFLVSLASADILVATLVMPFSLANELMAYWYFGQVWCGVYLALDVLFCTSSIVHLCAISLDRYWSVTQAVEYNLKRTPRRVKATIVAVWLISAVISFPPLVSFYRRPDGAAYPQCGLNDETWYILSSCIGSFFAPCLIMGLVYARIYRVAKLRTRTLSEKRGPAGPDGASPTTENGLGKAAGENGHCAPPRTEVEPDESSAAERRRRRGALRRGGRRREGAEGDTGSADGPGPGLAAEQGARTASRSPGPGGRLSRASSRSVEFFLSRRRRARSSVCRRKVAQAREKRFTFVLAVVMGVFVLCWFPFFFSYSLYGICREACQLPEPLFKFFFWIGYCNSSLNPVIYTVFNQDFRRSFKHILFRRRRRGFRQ
T2 sequence (P19328 whole entry): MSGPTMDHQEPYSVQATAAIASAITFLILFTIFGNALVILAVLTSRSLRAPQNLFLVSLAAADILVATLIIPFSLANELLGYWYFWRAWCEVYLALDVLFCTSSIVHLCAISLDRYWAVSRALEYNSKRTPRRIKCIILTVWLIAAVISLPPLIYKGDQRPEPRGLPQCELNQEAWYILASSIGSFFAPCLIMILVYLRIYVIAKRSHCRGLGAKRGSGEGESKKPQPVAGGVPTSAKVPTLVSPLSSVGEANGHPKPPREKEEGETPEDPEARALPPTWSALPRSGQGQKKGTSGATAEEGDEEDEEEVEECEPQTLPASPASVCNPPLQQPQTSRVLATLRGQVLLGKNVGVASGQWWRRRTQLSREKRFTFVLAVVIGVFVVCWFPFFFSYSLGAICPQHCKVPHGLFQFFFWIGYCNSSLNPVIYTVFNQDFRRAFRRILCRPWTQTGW
T2 sequence (P22909 whole entry): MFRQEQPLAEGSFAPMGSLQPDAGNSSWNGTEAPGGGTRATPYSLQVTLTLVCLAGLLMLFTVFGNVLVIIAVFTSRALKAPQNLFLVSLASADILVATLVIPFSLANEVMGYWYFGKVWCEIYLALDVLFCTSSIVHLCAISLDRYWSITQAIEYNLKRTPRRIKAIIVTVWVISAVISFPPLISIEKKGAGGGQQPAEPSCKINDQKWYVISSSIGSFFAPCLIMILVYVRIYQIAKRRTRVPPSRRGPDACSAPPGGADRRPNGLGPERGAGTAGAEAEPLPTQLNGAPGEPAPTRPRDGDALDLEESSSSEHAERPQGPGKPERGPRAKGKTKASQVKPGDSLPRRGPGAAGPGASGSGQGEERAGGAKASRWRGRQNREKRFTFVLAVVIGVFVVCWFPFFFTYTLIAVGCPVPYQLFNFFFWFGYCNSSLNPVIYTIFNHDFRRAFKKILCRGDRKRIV
The assay is described as follows: In vitro binding affinity against Alpha-2 adrenergic receptor of rat cerebral cortex using [3H]RX-821002.

Assay [3] concerns the target 5-hydroxytryptamine receptor 2A (Rattus norvegicus, UniProt P14842). The assay is described as follows: In vitro binding affinity against 5-HT2A receptor of rat cerebral cortex using [3H]ketanserin.
Another assay concerns the target D(1A) dopamine receptor (Rattus norvegicus, UniProt P18901). As to the kind of experiment: In vitro binding affinity against Dopamine receptor D1 of rat striatum using [3H]SCH-23390.

Sequence of D(2) dopamine receptor (P61169 whole entry): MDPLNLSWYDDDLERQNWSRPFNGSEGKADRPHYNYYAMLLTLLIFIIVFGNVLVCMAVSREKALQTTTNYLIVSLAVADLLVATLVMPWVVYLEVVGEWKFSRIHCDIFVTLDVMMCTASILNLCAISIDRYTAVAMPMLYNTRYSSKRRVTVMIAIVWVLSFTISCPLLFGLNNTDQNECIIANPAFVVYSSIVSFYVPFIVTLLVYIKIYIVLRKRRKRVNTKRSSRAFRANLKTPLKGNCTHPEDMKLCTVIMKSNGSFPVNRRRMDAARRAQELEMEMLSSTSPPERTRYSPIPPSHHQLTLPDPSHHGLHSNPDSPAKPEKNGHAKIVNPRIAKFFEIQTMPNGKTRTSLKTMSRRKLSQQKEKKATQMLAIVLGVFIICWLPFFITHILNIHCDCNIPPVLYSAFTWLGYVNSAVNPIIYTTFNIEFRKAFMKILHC
Sequence of D(1A) dopamine receptor (P18901 whole entry): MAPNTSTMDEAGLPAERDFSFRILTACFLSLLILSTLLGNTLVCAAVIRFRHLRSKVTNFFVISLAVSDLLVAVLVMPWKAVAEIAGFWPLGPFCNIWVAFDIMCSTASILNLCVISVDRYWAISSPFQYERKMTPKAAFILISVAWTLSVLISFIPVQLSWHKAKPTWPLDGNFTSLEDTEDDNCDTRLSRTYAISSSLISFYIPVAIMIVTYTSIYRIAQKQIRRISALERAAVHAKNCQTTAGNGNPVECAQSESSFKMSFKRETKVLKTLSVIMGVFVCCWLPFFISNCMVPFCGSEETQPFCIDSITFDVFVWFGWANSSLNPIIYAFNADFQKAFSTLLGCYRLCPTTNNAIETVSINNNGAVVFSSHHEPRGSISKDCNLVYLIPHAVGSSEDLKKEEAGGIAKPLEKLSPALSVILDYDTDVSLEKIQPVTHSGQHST
Sequence of 5-hydroxytryptamine receptor 2A (P14842 whole entry): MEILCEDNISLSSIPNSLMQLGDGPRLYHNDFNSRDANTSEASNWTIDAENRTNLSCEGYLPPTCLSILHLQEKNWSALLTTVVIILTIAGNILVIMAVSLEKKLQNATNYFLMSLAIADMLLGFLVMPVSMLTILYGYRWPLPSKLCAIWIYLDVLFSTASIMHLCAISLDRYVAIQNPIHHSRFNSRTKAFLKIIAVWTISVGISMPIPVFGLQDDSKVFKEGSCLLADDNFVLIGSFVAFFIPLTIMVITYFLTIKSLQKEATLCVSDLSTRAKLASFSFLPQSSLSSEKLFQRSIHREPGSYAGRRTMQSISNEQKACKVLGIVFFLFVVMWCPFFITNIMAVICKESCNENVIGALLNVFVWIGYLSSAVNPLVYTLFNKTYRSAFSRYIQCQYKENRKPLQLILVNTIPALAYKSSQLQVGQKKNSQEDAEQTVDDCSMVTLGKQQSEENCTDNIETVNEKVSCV

On to `O=C(c1cccc(CN2CCC(c3ccc(Cl)cc3)C2)c1)N1CCCCC1` (stereo not given), for which the inhibitory constant (Ki) (usually a dissociation constant, usually derived from enzyme kinetics or from competition with a known ligand) was found to be 334 nM at D(2) dopamine receptor; 15.3 nM in assay [1]; 44 nM in assay [2]; 46 nM in assay [3]; 37600 nM at D(1A) dopamine receptor.

For the molecule `O=C1c2ccccc2CN1CCCCN1CCC(c2ccccc2)C1` (stereo not given), the Ki on D(2) dopamine receptor came to 77 nM; in assay [1], 11.5 nM; in assay [2], 11 nM; in assay [3], 46 nM; at D(1A) dopamine receptor, 1950 nM.

On to `O=C(c1cccc(CN2CCC(c3ccccc3)C2)c1)N1CCCCC1` (stereo not given), for which the inhibition constant (Ki) worked out at 783 nM at D(2) dopamine receptor; 30.6 nM in assay [1]; 24 nM in assay [2]; 320 nM in assay [3]; 88100 nM on D(1A) dopamine receptor.

Take `O=C1c2ccccc2S(=O)(=O)N1CCCCN1CCC(c2ccc(F)cc2)C1` (stereo not given): the inhibitory constant (Ki) at D(2) dopamine receptor was 263 nM; in assay [1], 4.2 nM; in assay [2] it was 334 nM; in assay [3], above 367 nM; at D(1A) dopamine receptor, 6670 nM.

With `O=C1c2ccccc2CN1CCCCN1CCC(c2ccc(Cl)cc2)C1` (stereo not given), the Ki on D(2) dopamine receptor was 185 nM; in assay [1] it was 30.4 nM; in assay [2], 12 nM; in assay [3] it was 184 nM; on D(1A) dopamine receptor, 1620 nM.

`O=C1c2ccccc2S(=O)(=O)N1CCCCN1CCC(c2ccc(Cl)cc2)C1` (stereo not given): the Ki was found to be 327 nM on D(2) dopamine receptor; 2.6 nM in assay [1]; 56 nM in assay [2]; 232 nM in assay [3]; 1570 nM on D(1A) dopamine receptor.

For the molecule `O=C1c2ccccc2S(=O)(=O)N1CCCCN1CCC(c2ccccc2)C1` (stereo not given), the Ki at D(2) dopamine receptor stood at 195 nM; in assay [1] it was 2.7 nM; in assay [2] it was 16 nM; in assay [3], 34 nM; at D(1A) dopamine receptor it was 12500 nM.
